In the supplement of paper PMC11061612:

What was measured:
Gemcitabine = compound: Nc1ccn([C@@H]2O[C@H](CO)[C@@H](O)C2(F)F)c(=O)n1 [Gemcitabine]; conditions: max 0.3 µM
Method in brief: (§1)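 Cancer cell lines were seeded in 1536-well plates in 7.5 μl DMEM/F12 or RPMI with 10% FBS, held 24 hours at 37°C and 5% CO2, then dosed for 72 hours (final DMSO typically 0.2%). Viability was read by CellTiter-Glo 2.0 luminescence and scaled between blank-well and DMSO-well means. The single-agent IC50 comes from dose responses fitted to a two-parameter logistic curve with a non-linear mixed effects model.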

Paclitaxel = compound: CC(=O)O[C@H]1C(=O)[C@@]2(C)[C@H]([C@H](OC(=O)c3ccccc3)[C@]3(O)C[C@H](OC(=O)[C@H](O)[C@@H](NC(=O)c4ccccc4)c4ccccc4)C(C)=C1C3(C)C)[C@]1(OC(C)=O)CO[C@@H]1C[C@@H]2O [Paclitaxel]; conditions: max 3 µM
Method in brief: as §1

Taselisib = compound: Cc1nc(-c2cn3c(n2)-c2ccc(-c4cnn(C(C)(C)C(N)=O)c4)cc2OCC3)n(C(C)C)n1 [Taselisib]; conditions: max 10 µM
Method in brief: as §1

[1] = compound: O=C(Nc1ccc2[nH]nc(-c3ccncc3)c2c1)[C@@H]1CCN(CC(=O)N2CCN(c3ccc(-c4ncccn4)cc3)CC2)C1; conditions: max 5 µM
Method in brief: as §1

Etoposide = compound: COc1cc([C@@H]2c3cc4c(cc3[C@@H](O[C@@H]3O[C@@H]5CO[C@@H](C)O[C@H]5[C@H](O)[C@H]3O)[C@H]3COC(=O)[C@H]23)OCO4)cc(OC)c1O [Etoposide]; conditions: max 10 µM
Method in brief: as §1

AZD1775 = compound: C=CCn1c(=O)c2cnc(Nc3ccc(N4CCN(C)CC4)cc3)nc2n1-c1cccc(C(C)(C)O)n1 [AZD1775]; conditions: max 3 µM
Method in brief: as §1

AZD1390 = compound: CC(C)n1c(=O)n(C)c2cnc3cc(F)c(-c4ccc(OCCCN5CCCCC5)nc4)cc3c21 [AZD1390]; conditions: max 0.3 µM
Method in brief: as §1

Gefitinib = compound: COc1cc2ncnc(Nc3ccc(F)c(Cl)c3)c2cc1OCCCN1CCOCC1 [Gefitinib]; conditions: max 10 µM
Method in brief: as §1

5-Fluorouracil = compound: O=c1[nH]cc(F)c(=O)[nH]1 [5-Fluorouracil]; conditions: max 20 µM
Method in brief: as §1

SRA737 = compound: N#Cc1cnc(Nc2cc(NC[C@H]3CNCCO3)c(C(F)(F)F)cn2)cn1 [SRA737]; conditions: max 10 µM
Method in brief: as §1

Trametinib = compound: CC(=O)Nc1cccc(-n2c(=O)n(C3CC3)c(=O)c3c(Nc4ccc(I)cc4F)n(C)c(=O)c(C)c32)c1 [Trametinib]; conditions: max 1 µM
Method in brief: as §1

SN-38 = compound: CCc1c2c(nc3ccc(O)cc13)-c1cc3c(c(=O)n1C2)COC(=O)[C@]3(O)CC [SN-38]; conditions: max 0.3 µM
Method in brief: as §1

AZD5363 = compound: C1CN(CCC1(C(=O)N[C@@H](CCO)C2=CC=C(C=C2)Cl)N)C3=NC=NC4=C3C=CN4 [AZD5363]; conditions: max 10 µM
Method in brief: as §1

Carboplatin = compound: C1CC(C1)(C(=O)[O-])C(=O)[O-].N.N.[Pt+2] [Carboplatin]; conditions: max 10 µM
Method in brief: as §1

Alisertib = compound: COc1cc(Nc2ncc3c(n2)-c2ccc(Cl)cc2C(c2c(F)cccc2OC)=NC3)ccc1C(=O)O [Alisertib]; conditions: max 10 µM
Method in brief: as §1

Savolitinib = compound: C[C@@H](c1ccc2nccn2c1)n1nnc2ncc(-c3cnn(C)c3)nc21 [Savolitinib]; conditions: max 1 µM
Method in brief: as §1

Palbociclib = compound: CC(=O)c1c(C)c2cnc(Nc3ccc(N4CCNCC4)cn3)nc2n(C2CCCC2)c1=O [Palbociclib]; conditions: max 10 µM
Method in brief: as §1

MK-2206 = compound: NC1(c2ccc(-c3nc4ccn5c(=O)[nH]nc5c4cc3-c3ccccc3)cc2)CCC1 [MK-2206]; conditions: max 10 µM
Method in brief: as §1

Olaparib = compound: O=C(c1cc(Cc2n[nH]c(=O)c3ccccc23)ccc1F)N1CCN(C(=O)C2CC2)CC1 [Olaparib]; conditions: max 10 µM
Method in brief: as §1

Crizotinib = compound: C[C@@H](Oc1cc(-c2cnn(C3CCNCC3)c2)cnc1N)c1c(Cl)ccc(F)c1Cl [Crizotinib]; conditions: max 10 µM
Method in brief: as §1

Lapatinib = compound: CS(=O)(=O)CCNCc1ccc(-c2ccc3ncnc(Nc4ccc(OCc5cccc(F)c5)c(Cl)c4)c3c2)o1 [Lapatinib]; conditions: max 10 µM
Method in brief: as §1

AZD7648 = compound: Cc1cc2ncnn2cc1Nc1ncc2c(n1)n(C1CCOCC1)c(=O)n2C [AZD7648]; conditions: max 10 µM
Method in brief: as §1

AZD8186 = compound: C[C@@H](Nc1cc(F)cc(F)c1)c1cc(C(=O)N(C)C)cc2c(=O)cc(N3CCOCC3)oc12 [AZD8186]; conditions: max 10 µM
Method in brief: as §1

AZD2811 = compound: CCN(CCO)CCCOc1ccc2c(Nc3cc(CC(=O)Nc4cccc(F)c4)[nH]n3)ncnc2c1 [AZD2811]; conditions: max 1 µM
Method in brief: as §1

Venetoclax = compound: CC1(C)CCC(CN2CCN(c3ccc(C(=O)NS(=O)(=O)c4ccc(NCC5CCOCC5)c([N+](=O)[O-])c4)c(Oc4cnc5[nH]ccc5c4)c3)CC2)=C(c2ccc(Cl)cc2)C1 [Venetoclax]; conditions: max 1 µM
Method in brief: as §1

AZD0156 = compound: CN(C)CCCOc1ccc(-c2ccc3ncc4c(c3c2)n(C2CCOCC2)c(=O)n4C)cn1 [AZD0156]; conditions: max 3 µM
Method in brief: as §1

AZD6738 = compound: C[C@@H]1COCCN1C2=NC(=NC(=C2)C3(CC3)[S@](=N)(=O)C)C4=C5C=CNC5=NC=C4 [AZD6738]; conditions: max 10 µM
Method in brief: as §1

AZD5153 = compound: COc1nnc2ccc(N3CCC(c4ccc(OCCN5CCN(C)C(=O)[C@H]5C)cc4)CC3)nn12 [AZD5153]; conditions: max 1 µM
Method in brief: as §1

Prexasertib = compound: COc1cccc(OCCCN)c1-c1cc(Nc2cnc(C#N)cn2)n[nH]1 [Prexasertib]; conditions: max 1 µM
Method in brief: as §1

Selumetinib = compound: Cn1cnc2c(F)c(Nc3ccc(Br)cc3Cl)c(C(=O)NOCCO)cc21 [Selumetinib]; conditions: max 10 µM
Method in brief: as §1

AZD5991 = compound: Cc1c2c(nn1C)CSCc1cc(n(C)n1)CSc1cc(c3ccccc3c1)OCCCc1c(C(=O)O)n(C)c3c-2c(Cl)ccc13 [AZD5991]; conditions: max 1 µM
Method in brief: as §1

Dasatinib = compound: CC1=C(C(=CC=C1)Cl)NC(=O)C2=CN=C(S2)NC3=CC(=NC(=N3)C)N4CCN(CC4)CCO [Dasatinib]; conditions: max 2 µM
Method in brief: as §1

SG3199 = compound: CC1=CN2[C@@H](C1)C=NC3=CC(=C(C=C3C2=O)OC)OCCCCCOC4=C(C=C5C(=C4)N=C[C@@H]6CC(=CN6C5=O)C)OC [SG3199]; conditions: max 0.001 µM
Method in brief: as §1

Doxorubicin = compound: COc1cccc2c1C(=O)c1c(O)c3c(c(O)c1C2=O)C[C@@](O)(C(=O)CO)C[C@@H]3O[C@H]1C[C@H](N)[C@H](O)[C@H](C)O1 [Doxorubicin]; conditions: max 1 µM
Method in brief: as §1

AZD4320 = compound: CN(CC[C@H](CSC1=CC=CC=C1)NC2=C(C=C(C=C2)S(=O)(=O)NC(=O)C3=CC=C(C=C3)N4CCC(CC4)[C@H](C5=CC=CC=C5C6=CC=C(C=C6)Cl)O)S(=O)(=O)C(F)(F)F)CCO [AZD4320]; conditions: max 1 µM
Method in brief: as §1

| Cell Line | IC50, cell viability 72 h (Gemcitabine) [µM] | IC50, cell viability 72 h (Paclitaxel) [µM] | IC50, cell viability 72 h (Taselisib) [µM] | IC50, cell viability 72 h [1] [µM] | IC50, cell viability 72 h (Etoposide) [µM] | IC50, cell viability 72 h (AZD1775) [µM] | IC50, cell viability 72 h (AZD1390) [µM] | IC50, cell viability 72 h (Gefitinib) [µM] | IC50, cell viability 72 h (5-Fluorouracil) [µM] | IC50, cell viability 72 h (SRA737) [µM] | IC50, cell viability 72 h (Trametinib) [µM] | IC50, cell viability 72 h (SN-38) [µM] | IC50, cell viability 72 h (AZD5363) [µM] | IC50, cell viability 72 h (Carboplatin) [µM] | IC50, cell viability 72 h (Alisertib) [µM] | IC50, cell viability 72 h (Savolitinib) [µM] | IC50, cell viability 72 h (Palbociclib) [µM] | IC50, cell viability 72 h (MK-2206) [µM] | IC50, cell viability 72 h (Olaparib) [µM] | IC50, cell viability 72 h (Crizotinib) [µM] | IC50, cell viability 72 h (Lapatinib) [µM] | IC50, cell viability 72 h (AZD7648) [µM] | IC50, cell viability 72 h (AZD8186) [µM] | IC50, cell viability 72 h (AZD2811) [µM] | IC50, cell viability 72 h (Venetoclax) [µM] | IC50, cell viability 72 h (AZD0156) [µM] | IC50, cell viability 72 h (AZD6738) [µM] | IC50, cell viability 72 h (AZD5153) [µM] | IC50, cell viability 72 h (Prexasertib) [µM] | IC50, cell viability 72 h (Selumetinib) [µM] | IC50, cell viability 72 h (AZD5991) [µM] | IC50, cell viability 72 h (Dasatinib) [µM] | IC50, cell viability 72 h (SG3199) [µM] | IC50, cell viability 72 h (Doxorubicin) [µM] | IC50, cell viability 72 h (AZD4320) [µM] |
| --- | --- | --- | --- | --- | --- | --- | --- | --- | --- | --- | --- | --- | --- | --- | --- | --- | --- | --- | --- | --- | --- | --- | --- | --- | --- | --- | --- | --- | --- | --- | --- | --- | --- | --- | --- |
| KYSE-270 (Esophageal Squamous Cell Carcinoma) | 0.0359 | 0.0394 | 3.47 | > 5 | 4.58 | 0.665 | > 0.3 | 8.19 | 14.9 | 1.4 | > 1 | 0.0107 | > 10 | > 10 | > 10 | > 1 | > 10 | > 10 | > 10 | > 10 | 7.84 | > 10 | > 10 | > 1 | > 1 | > 3 | 4.16 | > 1 | 0.00806 | > 10 | > 1 | 0.506 | > 0.001 | 0.424 | > 1 |
| M059J (Glioblastoma) | 0.0909 | 0.0176 | > 10 | > 5 | 2.59 | 0.933 | > 0.3 | > 10 | > 20 | > 10 | > 1 | 0.0141 | > 10 | > 10 | 4.06 | > 1 | > 10 | > 10 | > 10 | > 10 | > 10 | > 10 | > 10 | > 1 | > 1 | > 3 | > 10 | 0.164 | 0.241 | > 10 | > 1 | 1.39 | > 0.001 | 0.23 | > 1 |
| MN-60 (B-Lymphoblastic Leukemia) | 0.213 | 0.674 | > 10 | > 5 | > 10 | > 3 | > 0.3 | > 10 | > 20 | > 10 | > 1 | 0.0146 | > 10 | > 10 | > 10 | > 1 | > 10 | > 10 | > 10 | > 10 | > 10 | > 10 | > 10 | > 1 | > 1 | > 3 | > 10 | 0.111 | > 1 | > 10 | > 1 | > 2 | > 0.001 | > 1 | > 1 |
| MOG-G-CCM (Low Grade Glioma) | > 0.3 | 0.00497 | 8.27 | > 5 | > 10 | > 3 | > 0.3 | > 10 | > 20 | > 10 | > 1 | 0.293 | > 10 | > 10 | 1.93 | > 1 | > 10 | > 10 | > 10 | > 10 | > 10 | > 10 | 4.39 | > 1 | > 1 | > 3 | > 10 | 0.449 | 0.157 | > 10 | > 1 | 0.354 | > 0.001 | > 1 | > 1 |
| NCCIT (Other Solid Carcinomas) | > 0.3 | 0.0118 | 1.62 | > 5 | > 10 | 0.561 | > 0.3 | > 10 | > 20 | > 10 | > 1 | > 0.3 | 8.12 | > 10 | > 10 | > 1 | > 10 | 6.67 | > 10 | > 10 | > 10 | > 10 | > 10 | > 1 | > 1 | > 3 | 8.41 | 0.0336 | 0.0703 | > 10 | 0.891 | > 2 | > 0.001 | > 1 | > 1 |
